Bridges are numbered along the chain shown (N, C = ends). Where no end group is shown, it is not given here.
Experiments:
[1] = tested on: NFkB pathway; test: NFkB expression in Jurkat-Dual reporter cells, luciferase (IL-10 mimetic peptides); format: cell-based; conditions: without activating molecules; 12, 24 and 48 hours; different concentrations
Description: (§1) In order to investigate the ability of synthetic peptides with affinity to the Interleukin-10 receptor to interfere in the NFkB, IFN and TLR4 pathways, reporter cell lines were used. To analyze whether the isolated peptides (without activation molecules) could induce any type of activation, the isolated peptides were tested in cell lines during 12, 24 and 48 hours of treatment. […] As an example, FIG. 13A, FIG. 13B, and FIG. 13C show an analysis of NFkB expression after stimulation with the synthesized IL-10 receptor affinity synthetic peptides described herein. Cells were treated for 12, 24 and 48 hours with the synthesized peptides Pep 1-IL10, Pep 2-IL10, Pep 3-IL10 and Pep 4-IL10, at different concentrations, without activating molecules. Luciferase was then measured after 12 hours of treatment (FIG. 13A), 24 hours of treatment (FIG. 13B) and 48 hours of treatment (FIG. 13C). […] TNF-α (200 ng/mL) was used as a positive control.
The assay was then carried out using TNF-α as activation molecule not only in the control, but after a pretreatment with the synthesized peptides Pep 1-IL10, Pep 2-IL10, Pep 3-IL10 and Pep 4-IL10, at different concentrations. All peptides were able to modulate NFKB activation after 12, 24 and 48 hours, with different results depending on the concentrations used. […] In the assays shown by FIGS. 14 A, B and C, analysis of NFkB expression was performed in Jurkat-Dual reporter cells. Cells were treated for 1 hour with peptides and TNF-α (200 ng/ml) added. Luciferase was measured after 12 hours of treatment (FIG. 14A), 24 hours of treatment (FIG. 14B) and 48 hours of treatment (FIG. 14C).
Another assay was then performed in which cells were pretreated with TNF-α and the synthesized peptides Pep 1-IL10, Pep 2-IL10, Pep 3-IL10 and Pep 4-IL10, at different concentrations, were added later. All peptides were able to modulate NFKB activation after 12, 24 and 48 hours, with different results depending on the concentrations used. The most significant results will be described below. […] After 48 hours of treatment, Pep 1-IL-10 at a concentration of 0.001 μM (P<0.05) was the one that obtained a result with the highest statistical significance in the decrease of NFKB signaling (FIG. 15C). In the assays shown by FIGS. 15 A, B and C, analysis of NFkB expression was performed in Jurkat-Dual reporter cells. Cells were treated for 1 hour with TNF-α (200 ng/ml) and peptides were added. Luciferase was measured after 12 hours of treatment (FIG. 15A), 24 hours of treatment (FIG. 15B) and 48 hours of treatment (FIG. 15C). TNF-α (200 ng/mL) was used as a positive control and rlL-10 (recombinant Interleukin-10) (0.4 ng/mL) as a negative control. *P<0.05; **P<0.005; ***P<0.0005.

[2] = tested on: IFN signaling pathway; test: IFN signaling pathway in Jurkat-Dual reporter cells, SEAP production; format: cell-based; conditions: after 12, 24 and 48 hours; results depend on concentration
Description: as §1
The most significant results will be described below. […] When cells were pretreated with IFN, although peptides at some concentrations indicated results, they were not statistically sufficient. Therefore, we cannot confirm whether they were able to interfere with pathway activation (FIGS. 17 A, B and C) in an equal or better way than the negative control (rIL-10). In the assays shown by FIGS. 16 (A, B and C) and FIGS. 17 (A, B and C), analysis of IFN expression was performed in Jurkat-Dual reporter cells. In the assays shown by FIGS. 16 A, B and C, cells were treated for 1 hour with peptides with further addition of IFN-α (104 EU/ml). Secreted Embryonic Alkaline Phosphatase (SEAP) production was measured after 12 hours of treatment (FIG. 16A), 24 hours of treatment (FIG. 16 B) and 48 hours of treatment (FIG. 16 C). In the assays shown by FIGS. 17A, B and C, cells were treated for 1 hour with IFN-α (104 EU/ml) with further addition of the peptides. SEAP production was measured after (A) 12 hours of treatment (B), 24 hours of treatment and (C) 48 hours of treatment. IFN-α (104 EU/ml) was used as a positive control and rlL-10 (0.4 ng/ml) as a negative control. *P<0.05.

[3] = tested on: TLR4 signaling pathway; test: TLR4 signaling pathway in HEK cells, SEAP production (IL-10 mimetic peptides); format: cell-based; conditions: cells pretreated with LPS 100 ng/ml, peptides added; 12 hours
Description: as §1
HEK cells were used to investigate the ability of the synthesized peptides Pep 1-IL10, Pep 2-IL10, Pep 3-IL10 and Pep 4-IL10 to modulate the activation of the TLR4 signaling pathway after 12 hours of treatment. […]
In the assay shown by FIG. 14A cells were treated 1 hour with peptides and LPS (100 ng/ml) was added. SEAP production was measured after 12 hours of treatment. […] SEAP production was measured after 12 hours of treatment. […]

[4] = tested on: splenocytes of mice sensitized with Phl p 5; test: ELISPOT of splenocytes stimulated with Phl p5; format: in vivo
Description: (§2) To determine the number of splenic cells producing IFN-g, IL-4 and IL-10 in all groups of mice, an ELISPOT assay was performed. […] To investigate the cytokine profile in supernatants from restimulated splenocytes, a Luminex Multiplex cytokine analysis kit was used. […] Furthermore, an increase in IL-10 levels was observed.

[5] = tested on: mice sensitized by Phl p5; test: murine sensitization model with recombinant Phl p5: antibody response; format: in vivo
Source text: We then tested the ability of the synthesized TGF-β1 mimetic peptides to modulate the in vivo immune response during allergic sensitization to Phl p 5. We selected as an example Pep 2-TGF-β1 to show the results. […] Therefore, Pep 2-TGF-β1 modulated Phl p5-specific antibody responses in mice.

[6] = tested on: splenocytes of mice sensitized with Phl p 5; test: Luminex Multiplex cytokine analysis of supernatants from restimulated splenocytes; format: in vivo
Description: as §2

[7] = tested on: Treg cells; test: flow cytometry of CD4+CD25+Foxp3+ cells in splenocytes from BALB/c mice; format: in vivo
Source text: To investigate the influence of synthesized peptides mimetic to TGF-β1 on Treg induction specific to Phl p5 during allergic sensitization, we analyzed splenocytes from BALB/c mice using flow cytometry. We sought to investigate CD4+CD25+Foxp3+cells expressing GATA3, CTLA4 or KI67, as these factors are necessary for the survival and function of Treg cells. […] The percentage of CD4+CD25+Foxp3+T cells expressing the CTLA4 factor in mice without sensitization and sensitized with Phl p 5 was 5.62% and 9.46%, respectively, while in mice treated with Pep 2-TGF-β1 this value was 12.5% (FIG. 10C-D).

[8] = tested on: TGF-β1 receptor on A549 cells; test: ELISA on cells of the A549 line using anti-TGF-β1 antibody; format: binding, human
Description: The peptides described in this patent application were selected using the Phage Display (PD) methodology. The selection was performed by evaluating the ability of said peptides to recognize the TGF-β1 receptor on A549 cells, using an ELISA assay. MaxiSorp 96-well microtiter plates were coated with 1×10^6 cells diluted in PBS and incubated overnight at 4° C. Cells were blocked with 3% PBS-BSA for 1 h at 37° C., washed once with PBS and incubated with […] of each TGF-β1 mimetic peptide or 5 ng/ml of recombinant TGF-β1 for 1 h at 37° C. After washing, the plate was incubated for 1 h at 37° C. with anti-TGF-β1 antibody. The plate was washed and incubated with HRP-labeled anti-human IgG antibody for 1 h at 37° C. After washing, TMB substrate solution was added to the plate; the reaction was stopped by adding the 2N H2SO4 solution and read at 492 nm in a microplate reader.
To investigate whether the synthesized peptides could bind to cell receptors, an ELISA assay was performed on cells of the A549 line using commercial anti-TGF-β1 antibody.

[9] = tested on: TH2 polarization in skin-draining inguinal lymph node cells; test: TH2 polarization in IL-4 reporter (4get) mice, GFP+CD4+ lymphocytes by flow cytometry; format: in vivo; conditions: 5 days after immunization, administered with grass pollen extract
Source text: TH2 lymphocytes produce cytokines such as IL-4, IL-5 and IL-13 and lead to the class shift of immunoglobulin production from B cells to IgE, which triggers the allergic reaction. To investigate whether synthesized peptides mimetic to TGF-β1 can modulate TH2 polarization in the presence of grass pollen extract or rPhl p 5, we used an IL-4 reporter mouse. 4get mice express GFP as part of a bicistronic IL-4-IRES-GFP mRNA, allowing the identification of cells expressing IL-4 in situ during an allergen-induced TH2 response. In this experiment, we use skin-draining inguinal lymph node cells to monitor the TH2 response. […] In summary, in this IL-4 mice model, Pep 2 administered in combination with grass pollen extract was able to inhibit TH2 polarization in skin-draining inguinal lymph node cells.

[10] = tested on: Jurkat cells; test: cytokine secretion in MMA-stimulated Jurkat cells; format: cell-based, human
[11] = tested on: IL-8 gene expression; test: luciferase reporter under control of the IL-8 promoter in TNF-α stimulated A549 cells; format: cell-based, human
Source text: First, we tested the ability of the synthesized peptides to recognize TGF^RII on the surface of Jurkat cells, immortalized human T lymphocytes, using ELISA. The recombinant TGFβ (rTGFβ1) was used as a positive control. […] To investigate IL-8 cytokine production, we used an immortalized human lung epithelial cell line (A549), which plays an important role in the first defense line to foreign compounds. […] A mediator release assay, based on rat basophilic leukemia (RBL) cells bearing humanized FIERI receptor, was performed to investigate the effect of the synthesized peptides on IgE-mediated degranulation of basophils in an already sensitized system. This sensitive cell-based assay may help to understand the action of the mimetic peptide in an established allergic microenvironment.

For “Pep 2-IL-10: synthetic peptide with affinity to the Interleukin-10 receptor, SEQ ID NO: 10, without disulfide bridge (HASSAVIKSSSGGGS)”, which “induction of NFkB expression by peptides alone” value [1] is on record?
The value was “not able to induce any response”.

What about the “modulation of the activation of the IFN signaling pathway” value [2] of the same substance?
The value was “able to modulate the activation of the IFN signaling pathway”.

What about the “concentrations that significantly reduced TLR4 pathway activation” value [3] of the same substance?
The value was 100 μM (P<0.05), 1 μM (P<0.005), 0.5 μM (P<0.05), 0.1 μM (P<0.05), 0.05 μM (P<0.05) and 0.01 μM.

How did the “IFN-g secreted by splenocytes (ELISPOT) vs untreated mice” value [4] turn out when “Pep 2-TGF-β1: synthetic peptide with affinity to the TGF-β receptor, SEQ ID N 02, with disulfide bridges (HACESPLKRQCGGGS; disulfide 3-11)” was run?
The value was “significantly lower”.

And the “IL-4 secreted by splenocytes (ELISPOT) vs untreated mice” value [4]?
The value was “significantly lower”.

And the “IL-10 levels of splenocytes (ELISPOT) vs untreated mice” value [4]?
Its value is “significantly higher”.

And the “degranulation of RBL cells sensitized with sera from treated mice vs Phl p 5 immunized group” value ([5]; 1 μM, intradermal immunization with Phl p5)?
Its value is “significantly lower levels of degranulation”.

What about the “serum IgA levels (ELISA)” value ([5]; mice sensitized by Phl p5) of the same substance?
The value was “increased levels of IgA”.

And the “serum IgE levels (ELISA)” value ([5]; mice sensitized by Phl p5)?
Its value is “suppressed”.

What about the “serum IgG1 levels (ELISA)” value ([5]; mice sensitized by Phl p5) of the same substance?
The value was “suppressed”.

What about the “serum IgG2a levels (ELISA)” value ([5]; mice sensitized by Phl p5, not statistically significant) of the same substance?
Its value is “suppressed”.

What about the “IFN-g secretion in splenocyte supernatant vs untreated mice” value [6] of the same substance?
Its value is “significantly lower”.

What about the “IL-2 secretion in splenocyte supernatant vs untreated mice” value [6] of the same substance?
The value was “significantly lower”.

What about the “IL-4 secretion in splenocyte supernatant vs untreated mice” value [6] of the same substance?
Its value is “significantly lower”.

What about the “IL-5 secretion in splenocyte supernatant vs untreated mice” value [6] of the same substance?
Its value is “significantly lower”.

And the “IL-10 secretion in splenocyte supernatant vs untreated mice” value [6]?
Its value is “higher”.

What about the “IL-13 secretion in splenocyte supernatant vs untreated mice” value [6] of the same substance?
The value was “significantly lower”.

And the “Treg cells expressing the factor GATA3 (of total T cells)” value ([7]; mice sensitized with Phl p5 and treated, control 16.1%, sensitized 16.2%)?
The value was 43.9%.

What about the “percentage of CD4+CD25+Foxp3+T cells expressing the CTLA4 factor” value ([7]; mice sensitized with Phl p5 and treated, no sensitization 5.62%, sensitized 9.46%) of the same substance?
The value was 12.5%.

And the “percentage of CD4+CD25+Foxp3+cells expressing factor KI67” value ([7]; vs Phl p5-sensitized mice, not significantly different)?
The value was “enriched”.

What about the “recognition of receptor-bound peptide by anti-TGF-β1 antibody compared to recombinant TGF-β1” value [8] of the same substance?
The value was “in the same way that the antibody recognized the TGF-β1 recombinant molecule”.

And the “TH2 polarization (GFP+CD4+ lymphocytes)” value [9]?
Its value is “suppressed TH2 polarization”.

What does the source list for “rTGFβ: recombinant TGFβ (rTGFβ1) used as a positive control”?
IL-10 secretion [10]: increased IL-10 secretion; TNF-α secretion [10]: significantly decreased TNF-α secretion; IL-8 gene expression (luciferase reporter) [11]: decreased IL-8 gene expression

Source: patent publication US20220193185A1, “COMBINATION OF SYNTHETIC PEPTIDES WITH AFFINITY TO THE TGF-ß RECEPTOR AND WITH AFFINITY TO THE IL-10 RECEPTOR, PHARMACEUTICAL COMPOSITION AND THEIR USE AS IMMUNOMODULATORS IN THE TREATMENT OF AUTOIMMUNE, INFLAMMATORY OR ALLERGIC DISEASES” (Universidade Federal de Uberlândia, priority 2019, published 2022)
